Laboratory results as given in patent US20230202981A1, “NOVEL SMALL MOLECULES FOR TARGETED DEGRADATION OF UNTARGETABLE KRAS IN CANCER THERAPY” (Pillai Universal LLC, priority 2020, published 2023).

How the values were obtained:
Pharmacokinetics in mice = assay type: in vivo
[1] = tested on: cancer cells expressing KRAS mutations; assay: Cell viability assay in cancer cells expressing KRAS mutations; assay type: cell-based
From the text: It was further examined that if Compound 1 can also induce cytotoxic effects on other cancer cells expressing KRAS mutations, a panel of cancer cell lines which harbor KRAS G12D, G12V and G12C point mutations respectively, were selected and used with KRAS wild-type (WT) controls.
The cytotoxicity of Compound 1 was initially evaluated in a panel of 30+ cell lines with wild-type (WT) KRAS or known KRAS mutations.

p53 = assay: Expression of p53 and apoptosis-related genes (qRT-PCR); assay type: cell-based; settings: cancer cells
Protocol: FIG. 11 depicts compound I Targeting p53 (mRNA levels of p53, Puma, and Noxa in cells at 6 hours after compound I treatment. mRNA levels were quantified by qRT-PCR. Data were normalized to GAPDH expression and plotted relative to cells treated with DMSO as control)

PD-L1 = PD-L1 expression; assay type: cell-based
From the text: (§1) The present invention is aimed to invent powerful, therapeutic small molecules that could target mutant KRAS on its active sites. Here we identified a small molecule, compound I, that binds the GTP/GDP-binding pocket of KRAS. For this purpose we studied a strong correlation of measurement among a larger panel of tumor cell lines expressing KRAS mutation and analyses the potency to inhibit the tumor cell growth activated RAS. […] Therefore, compound I may be considered as a potential KRAS inhibitor for treatment of cancer cells carrying KRAS oncogene.

tumor xenograft = assay: Nude mouse xenograft models (EGFR/HER2 study); assay type: in vivo
From the text: The activity of Compound 1 on various mutated EGFRs, HER2, and HER4 were examined. MTT assays, flow cytometry, and Western blotting were used to examine the effects of Compound 1 on with different genetic characteristics and relevant molecular mechanisms. Nude mouse xenograft models with cells were used to evaluate the in vim anti-tumor activity of Compound 1. […] Compound 1 blocked EGFR phosphorylation, thereby down regulating downstream PI3/AKT and MAPK/ERK signaling pathways and inducing G0/G1 arrest in different cells. […] Due to compromised homologous recombination (HR) repair, BRCA 1-and BRCA 2-mutated tumours accumulate DNA damage and genomic rearrangements conducive of tumour progression.

wild-type (WT) KRAS = assay: RAS activation assay, GTP-KRAS in wild-type cells; assay type: cell-based
From the text: Actually, mutant KRAS would interfere the balance between GEFs and GAPs, resulting in locking in the active GTP-bound KRAS state and aberrant stimulation of its downstream signaling.
Significant increased expression of Immune cells has been observed in Compound 1 treatment.

[2] = tested on: miR-30c and miR-21 in mutant KRAS; assay: miR-30c and miR-21 and tumor suppressor gene expression (microarray analysis); assay type: cell-based
From the text: The effect of Compound 1 on the expression of miR 30c and miR-21 in mutant form of KRAS and Wild type was observed. […] Based on these observation our molecules targets miRNA in KRAS mutant model which acts as an attractive therapeutic tools in cancer medicine, because these miRNA that can silence multiple gene(s) and therefore switch off different pathways simultaneously, which is not possible with protein-based drugs and other covalent inhibitor of different KRAS mutant form, and eventually Compound 1 has no toxicity or off target effects compared to other standard drugs

[3] = tested on: KRAS downstream signaling proteins in wild type KRAS; assay: Downstream signaling proteins, wild type KRAS (protein and gene expression analysis); assay type: cell-based
[4] = tested on: CRAF, AKT and ERK phosphorylation in KRAS mutant cell lines; assay: Phosphorylation of KRAS downstream signaling pathway; assay type: cell-based; settings: 48 h, time-dependent
Protocol: Active KRAS stimulates downstream signaling pathways, especially for RAF/MEK/ERK and […] pathway, and then induces cell proliferation. Therefore, to investigate the effect of Compound 1, the phosphorylation levels of CRAF, AKT and ERK in cell lines was examined to monitor the impact of KRAS signaling by treatment with this compound for 48 h.

mitosis = assay: Cell cycle analysis of DNA content and phospho-histone H3B immunofluorescence; assay type: cell-based
From the text: as §1

Pharmacokinetics in rats = assay type: in vivo
normal cell lines = assay: Toxicity in normal cell lines; assay type: cell-based
[5] = Crossing blood-brain barrier: pharmacokinetics in brain regions; assay type: in vivo; design: AUC0-t_D: concentration or dose not given beside the values
BRCA 1/2-deficient cells = assay: Toxicity to BRCA-deficient cells; assay type: cell-based; settings: including cisplatin-resistant ones
In vivo toxicity studies = assay: In vivo toxicity studies
From the text: FIG. 20 depicts the results of in vivo toxicity studies of Compound 1. Organ weight, Body weight, liver weight, haematological parameters, serum electrolyte LFT, KFT, Lipid parameters found to be normal range compared with the controlled group.
Tests of blood cells (WBC, RBC, and PLT) for bone marrow, RFT for kidney, and ALT/AST for liver functions all provided results in the normal range.

[6] = tested on: RAS-MAPK pathway signaling in KRAS G12C mutant cell lines; assay: Reactivation of RAS signaling in KRAS G12C mutant cell lines; assay type: cell-based
From the text: Densitometry of phosphor-ERK, MEK, AKT, and MYC is normalized to GAPDH. Results represent an average across 8 cell lines.

**Q.** For CCCCc1ncc(C(=O)C2CC=C(C(N)=O)N2)cc1C(=O)OCC (centres unmarked) [Compound 1], which T1/2 (Pharmacokinetics in mice) is on record?
**A.** T1/2 = 5.8 h (mice)

**Q.** And the Cmax (Pharmacokinetics in mice; 10 mg/kg b.wt.)?
**A.** Cmax = 2.6 μg/mL (10 mg/kg b.wt. mice)

**Q.** What about the T max (Pharmacokinetics in mice; 10 mg/kg b.wt.) of the same compound?
**A.** T max = 2 h (mice 10 mg/kg, b.wt;)

**Q.** What about the “IC50 values, cancer cells and stem cells viability” value ([1]; KRAS G12D, G12V and G12C cell lines, 24 h) of the same compound?
**A.** nanomolar concentration

**Q.** What about the “IC50 values, cancer cell viability” value ([1]; panel of 30+ cell lines with WT KRAS or known KRAS mutations) of the same compound?
**A.** micromolar to nanomolar concentrations

**Q.** What about the “expression of p53” value (p53) of the same compound?
**A.** upregulating the expression of p53

**Q.** And the PD-L1 expression (PD-L1)?
**A.** suppresses PD-L1 expression

**Q.** What about the tumor growth (tumor xenograft) of the same compound?
**A.** inhibited tumor growth

**Q.** What about the “GTP binding affinity in wild type KRAS” value (wild-type (WT) KRAS; wild type KRAS) of the same compound?
**A.** no effect on GTP binding affinity

**Q.** And the “effect on GTP-KRAS in cells with wild-type KRAS” value (wild-type (WT) KRAS; wild-type (WT) KRAS cells)?
**A.** no effect was observed

**Q.** And the miR21 expression ([2]; control 0.72 ± 0.02)?
**A.** 1.58 ± 0.32

**Q.** What about the miR30c expression ([2]; control 0.96 ± 0.025) of the same compound?
**A.** 1.89 ± 0.25

**Q.** And the NF1 expression ([2]; control 1.56 ± 0.06)?
**A.** 1.21 ± 0.033

**Q.** And the BID expression ([2]; control 1.56 ± 0.36)?
**A.** 0.32 ± 0.012

**Q.** And the RASA1 expression ([2]; control 1.69 ± 0.36)?
**A.** 0.32 ± 0.031

**Q.** And the “expression of miR 30c and miR-21” value ([2]; mutant form of KRAS, microarray analysis)?
**A.** significantly reduced

**Q.** What about the “expression of KRAS downstream signaling proteins MEK, RAF and PI3K” value [3] of the same compound?
**A.** has not altered the expression

**Q.** What about the pERK level ([3]; control 1.42 ± 0.069) of the same compound?
**A.** 1.46 ± 0.23

**Q.** What about the pCRAF level ([3]; control 1.52 ± 0.025) of the same compound?
**A.** 1.42 ± 0.25

**Q.** What about the pP13K level ([3]; control 1.85 ± 0.32) of the same compound?
**A.** 1.62 ± 0.63

**Q.** What about the pAKt level ([3]; control 1.89 ± 0.63) of the same compound?
**A.** 1.72 ± 0.14

**Q.** And the pMEK level ([3]; control 1.96 ± 0.22)?
**A.** 1.85 ± 0.32

**Q.** What about the “levels of phosphorylation of CRAF and AKT” value [4] of the same compound?
**A.** reduced the levels of phosphorylation

**Q.** And the mitotic arrest (mitosis)?
**A.** induced mitotic arrest

**Q.** And the Cmax (Pharmacokinetics in rats; rat, 10 mg/kg b.wt)?
**A.** Cmax = 1.9 μg/mL (10 mg/kg b.wt rat)

**Q.** What about the T1/2 (Pharmacokinetics in rats; rats) of the same compound?
**A.** T1/2 = 9.8 h (rats)

**Q.** What about the T max (Pharmacokinetics in rats; rats, 10 mg/kg b.wt) of the same compound?
**A.** T max = 2 h (rats, 10 mg/kg, b.wt; )

**Q.** And the “toxicity in normal cell lines” value (normal cell lines)?
**A.** minimum toxicity

**Q.** What about the AUC0-t_D ([5]; Brainstem) of the same compound?
**A.** 85.63 ± 17.43 h × ng/g/mg, h × ng/mL/mg

**Q.** And the MRTQ-t ([5]; Brainstem)?
**A.** 5.89 ± 0.34 h

**Q.** What about the Tmax ([5]; Brainstem) of the same compound?
**A.** 1.35 ± 0.33 h

**Q.** What about the T½ ([5]; Brainstem) of the same compound?
**A.** 1.81 ± 0.23 h

**Q.** What about the AUC0-t_D ([5]; Cortex) of the same compound?
**A.** 152.08 ± 5.25 h × ng/g/mg, h × ng/mL/mg

**Q.** And the MRTQ-t ([5]; Cortex)?
**A.** 6.23 ± 0.65 h

**Q.** What about the Tmax ([5]; Cortex) of the same compound?
**A.** 1.14 ± 0.09 h

**Q.** What about the T½ ([5]; Cortex) of the same compound?
**A.** 5.86 ± 2.91 h

**Q.** What about the AUC0-t_D ([5]; Hippocampus) of the same compound?
**A.** 58.20 ± 15.36 h × ng/g/mg, h × ng/mL/mg

**Q.** And the MRTQ-t ([5]; Hippocampus)?
**A.** 5.18 ± 0.51 h

**Q.** What about the Tmax ([5]; Hippocampus) of the same compound?
**A.** 1.25 ± 1.08 h

**Q.** And the T½ ([5]; Hippocampus)?
**A.** 1.19 ± 0.22 h

**Q.** What about the AUC0-t_D ([5]; Hypothalamus) of the same compound?
**A.** 59.10 ± 5.06 h × ng/g/mg, h × ng/mL/mg

**Q.** What about the MRTQ-t ([5]; Hypothalamus) of the same compound?
**A.** 5.25 ± 0.60 h

**Q.** What about the Tmax ([5]; Hypothalamus) of the same compound?
**A.** 0.54 ± 0.24 h

**Q.** And the T½ ([5]; Hypothalamus)?
**A.** 1.18 ± 0.26 h

**Q.** What about the AUC0-t_D ([5]; Striatum) of the same compound?
**A.** 123.81 ± 4.90 h × ng/g/mg, h × ng/mL/mg

**Q.** And the MRTQ-t ([5]; Striatum)?
**A.** 6.75 ± 0.68 h

**Q.** And the Tmax ([5]; Striatum)?
**A.** 0.14 ± 0.09 h

**Q.** And the T½ ([5]; Striatum)?
**A.** 3.45 ± 0.93 h

**Q.** And the “toxicity to BRCA 1/2-deficient cells” value (BRCA 1/2-deficient cells)?
**A.** specifically toxic

**Q.** And the “histopathology of harvested normal tissues” value (In vivo toxicity studies; after treatment with specific doses)?
**A.** no evidence of normal tissue toxicities

**Q.** What about the “blood cells, kidney and liver function tests, organ and body weight” value (In vivo toxicity studies; compared with the controlled group) of the same compound?
**A.** normal range

**Q.** What about the “MAPK pathway signaling (phosphor-MEK, phosphor-ERK, phosphor-AKT)” value ([6]; at 4 hours) of the same compound?
**A.** suppressed MAPK pathway signaling

**Q.** And the “rebound of RAS-MAPK pathway signaling (pMEK, pERK, pAKT, MYC)” value ([6]; by 72 hours)?
**A.** no rebound activity was observed
